Key:
Type in all cases: cell-based
[1] = biological target: T1, NMDA receptor formed of NR1 and NR2B subunits (Rattus norvegicus, UniProt P35439+Q00960); assay: NMDA receptor activity assay (GFP-α-CaMKII translocation signal); conditions: HEK-293 cells transfected with NR1, NR2B and GFP-α-CaMKII; for Ca2+ influx / translocation of GFP-α-CaMKII to NR2B upon receptor activation: glutamate 10 μM and glycine 2 μM with 2 mM CaCl2, about 5 minutes, no signal without extracellular Ca2+
T1 construct: expressed in transfected cells; host or cells: HEK-293

[2] = biological target: T2, vanilloid receptor (TRPV1) (Rattus norvegicus, UniProt O35433); assay: TRPV1 receptor activity assay (GFP-CaMKII translocation to MLS-NR2B)
T2 construct: expressed in transfected cells; host or cells: HEK-293

[3] = biological target: T3, AMPA-type glutamate receptor GluR4 (Rattus norvegicus, UniProt P19493); assay: GluR4 receptor activity assay (GFP-CaMKII translocation to MLS-NR2B)
T3 construct: expressed in transfected cells; host or cells: HEK-293
Description: HEK-293 cells were cotransfected with GluR4 (pRK5-GluR4, about 0.33 μg/well), MLS-NR2B (pSGH-MLS-NR2B, about 0.33 μg/well) and GFP-CaMKII (pEGFP-CaMKII, about 0.1 μg/well) using lipofectamine reagent. During growth, the medium was supplemented with 50 μM CNQX (inhibitor of AMPA receptor). After 48 hours, the transfected cells were subjected to GluR4 activity assay. The growth medium was removed and the cells were washed twice with Ca^2+ and Mg free HBSS containing 2 mM HEPES and 400 μM EGTA. The GluR4 receptor was activated with HBSS solution containing 10 μM glutamate with or without 2 mM Ca^2+ for about 5 minutes. The inhibitor, CNQX (50 μM), when used, was preincubated for 3 minutes with cells in Ca^2+ and Mg^2+-free HBSS followed by activation using the components as described above with 50 μM CNQX. Cells were then fixed and were mounted onto glass slides.

[4] = tested on: MLS-NR2B; assay: Ionomycin-mediated Ca2+-influx, cell count of cells with GFP-clustering signal; conditions: HEK-293 cells with MLS-NR2B
Description: For transfection, 1.5×10^4 HEK-293 cells were seeded on sterile 12 mm cover slips in 24 well plates (Nunc). After 24 hrs, the cells were cotransfected with plasmid constructs encoding GFP-α-CaMKII (0.1 μg/well) and either of MLS-NR2A or MLS-NR2B (0.25 μg/well), or pRK-NR2A or pRK-NR2B (along with pRc-NR1 for expression of functional NMDA receptor) using Lipofectamine reagent. About 48 hrs following transfection, cells were washed with Hank's balanced salt solution (HBSS) containing 20 mM HEPES and 1.4 mM EGTA. The cells were then incubated with 15 μM ionomycin in the same buffer for 10 min. Subsequently the cells were incubated in the same buffer containing 2 mM CaCl2 and 3 μM ionomycin. Cells were fixed with 3.7% paraformaldehyde in PBS (Phosphate-buffered saline, 10 mM disodium hydrogen phosphate, 1.8 mM potassium dihydrogen orthophosphate, 140 mM sodium chloride, 2.7 mM potassium chloride, pH adjusted to 7.4) at different time points after addition of calcium, mounted with mountant containing DABCO (antifade) and were observed through either a simple fluorescence microscope or a confocal fluorescence microscope (TCS -SP2-AOBS from Leica).
Appearance of perinuclear granules due to mitochondrial localization of GFP-α-CaMKII is taken as the signal for binding between GFP-α-CaMKII and MLS-NR2B. […]

T1 sequence (Q00960 27-1482, other chains not shown): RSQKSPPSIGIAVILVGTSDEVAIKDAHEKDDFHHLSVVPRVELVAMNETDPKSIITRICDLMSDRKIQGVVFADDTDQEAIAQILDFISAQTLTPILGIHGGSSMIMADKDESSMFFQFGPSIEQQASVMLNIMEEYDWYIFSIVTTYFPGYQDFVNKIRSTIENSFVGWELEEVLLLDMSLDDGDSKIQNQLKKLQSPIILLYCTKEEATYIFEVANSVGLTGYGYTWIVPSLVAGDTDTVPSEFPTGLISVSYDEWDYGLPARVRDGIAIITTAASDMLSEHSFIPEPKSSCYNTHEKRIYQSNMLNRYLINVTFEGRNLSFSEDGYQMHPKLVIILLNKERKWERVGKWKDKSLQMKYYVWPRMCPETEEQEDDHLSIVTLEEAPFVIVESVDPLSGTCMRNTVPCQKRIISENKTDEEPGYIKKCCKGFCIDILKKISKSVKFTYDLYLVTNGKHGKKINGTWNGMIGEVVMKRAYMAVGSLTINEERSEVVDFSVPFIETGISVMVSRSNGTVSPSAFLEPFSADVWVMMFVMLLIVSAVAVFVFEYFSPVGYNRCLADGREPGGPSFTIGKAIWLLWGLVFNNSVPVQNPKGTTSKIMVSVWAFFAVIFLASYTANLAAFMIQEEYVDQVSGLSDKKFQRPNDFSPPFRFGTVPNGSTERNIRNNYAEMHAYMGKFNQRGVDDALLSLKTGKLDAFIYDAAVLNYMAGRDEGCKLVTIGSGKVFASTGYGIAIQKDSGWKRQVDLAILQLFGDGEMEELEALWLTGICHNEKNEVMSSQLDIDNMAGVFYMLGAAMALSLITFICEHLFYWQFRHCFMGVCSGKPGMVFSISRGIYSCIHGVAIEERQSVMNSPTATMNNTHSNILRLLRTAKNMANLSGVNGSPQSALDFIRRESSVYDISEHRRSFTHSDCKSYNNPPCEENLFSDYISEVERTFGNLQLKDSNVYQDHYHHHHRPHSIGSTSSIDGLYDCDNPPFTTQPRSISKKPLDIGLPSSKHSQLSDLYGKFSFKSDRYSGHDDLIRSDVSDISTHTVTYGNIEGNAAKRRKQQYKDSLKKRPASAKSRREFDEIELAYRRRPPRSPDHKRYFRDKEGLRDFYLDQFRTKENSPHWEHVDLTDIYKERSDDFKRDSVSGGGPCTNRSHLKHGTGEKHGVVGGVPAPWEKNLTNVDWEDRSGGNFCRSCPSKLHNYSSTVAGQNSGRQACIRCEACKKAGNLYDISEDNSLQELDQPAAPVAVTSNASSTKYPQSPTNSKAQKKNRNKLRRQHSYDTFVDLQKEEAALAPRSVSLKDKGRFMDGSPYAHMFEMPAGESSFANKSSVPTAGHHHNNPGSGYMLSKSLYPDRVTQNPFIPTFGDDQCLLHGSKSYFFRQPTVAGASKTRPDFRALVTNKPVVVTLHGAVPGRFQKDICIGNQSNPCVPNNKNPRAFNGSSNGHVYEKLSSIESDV
T3 sequence (P19493 22-902 limits assumed): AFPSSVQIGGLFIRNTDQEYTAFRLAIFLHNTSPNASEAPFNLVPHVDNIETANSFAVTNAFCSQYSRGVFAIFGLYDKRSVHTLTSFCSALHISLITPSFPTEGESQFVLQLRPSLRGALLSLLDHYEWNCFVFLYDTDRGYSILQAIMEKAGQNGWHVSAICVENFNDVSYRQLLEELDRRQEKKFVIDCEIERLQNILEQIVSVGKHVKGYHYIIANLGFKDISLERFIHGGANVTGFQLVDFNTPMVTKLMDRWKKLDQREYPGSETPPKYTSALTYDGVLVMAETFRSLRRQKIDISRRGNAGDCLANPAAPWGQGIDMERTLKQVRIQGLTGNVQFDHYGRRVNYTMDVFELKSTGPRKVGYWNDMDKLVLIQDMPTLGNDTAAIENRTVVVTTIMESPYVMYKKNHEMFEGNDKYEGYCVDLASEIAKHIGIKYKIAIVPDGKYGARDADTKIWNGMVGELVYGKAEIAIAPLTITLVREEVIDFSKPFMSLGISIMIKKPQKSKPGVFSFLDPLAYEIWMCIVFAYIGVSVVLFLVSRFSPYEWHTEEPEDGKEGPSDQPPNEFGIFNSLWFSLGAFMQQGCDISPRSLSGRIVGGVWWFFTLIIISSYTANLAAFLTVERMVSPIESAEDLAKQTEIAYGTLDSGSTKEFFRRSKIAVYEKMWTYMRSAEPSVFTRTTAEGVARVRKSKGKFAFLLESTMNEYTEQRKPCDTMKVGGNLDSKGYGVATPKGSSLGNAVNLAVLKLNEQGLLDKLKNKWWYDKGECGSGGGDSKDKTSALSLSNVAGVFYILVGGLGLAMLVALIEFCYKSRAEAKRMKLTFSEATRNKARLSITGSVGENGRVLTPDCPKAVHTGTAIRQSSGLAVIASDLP
T2 sequence (O35433 whole entry): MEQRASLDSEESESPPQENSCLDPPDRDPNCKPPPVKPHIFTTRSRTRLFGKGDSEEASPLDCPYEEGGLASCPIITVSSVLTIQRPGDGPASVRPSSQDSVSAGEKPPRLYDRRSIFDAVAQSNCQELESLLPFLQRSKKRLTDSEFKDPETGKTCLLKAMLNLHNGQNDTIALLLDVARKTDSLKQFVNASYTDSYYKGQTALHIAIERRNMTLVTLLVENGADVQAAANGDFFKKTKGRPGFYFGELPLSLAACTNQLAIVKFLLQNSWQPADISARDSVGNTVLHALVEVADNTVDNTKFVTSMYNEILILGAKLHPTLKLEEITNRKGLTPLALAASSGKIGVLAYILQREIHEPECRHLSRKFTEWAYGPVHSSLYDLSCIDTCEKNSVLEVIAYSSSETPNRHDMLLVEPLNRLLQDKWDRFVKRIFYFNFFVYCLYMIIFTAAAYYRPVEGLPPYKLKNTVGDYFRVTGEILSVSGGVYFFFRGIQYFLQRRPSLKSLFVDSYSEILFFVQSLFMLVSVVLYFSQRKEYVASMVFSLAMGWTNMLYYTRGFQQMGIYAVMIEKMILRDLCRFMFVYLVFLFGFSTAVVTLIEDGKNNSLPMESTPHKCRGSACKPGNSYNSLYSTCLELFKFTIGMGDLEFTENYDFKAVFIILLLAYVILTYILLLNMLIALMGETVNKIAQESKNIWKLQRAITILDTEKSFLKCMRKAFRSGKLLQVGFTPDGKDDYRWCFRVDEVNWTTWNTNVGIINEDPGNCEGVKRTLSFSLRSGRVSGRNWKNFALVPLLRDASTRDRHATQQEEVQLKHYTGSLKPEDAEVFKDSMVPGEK

Molecule: C[C@]12N[C@H](Cc3ccccc31)c1ccccc12 [MK-801]
- Signal generation in presence of NMDA receptor specific inhibitor ([1]; activated with glutamate and glycine, 1 mM AP-5 or 10 μM MK-801): blocked

Molecule: Oc1cc2c(cc1O)CN(C(=S)NCCc1ccc(Cl)cc1)CCC2 [capsazepine]
- Signal generation due to activation of TRPV1 in presence of inhibitor ([2]; capsazepine 50 μM, preincubated 3 minutes, then capsaicin activation with Ca2+ (FIG. 10)): could be inhibited

Molecule: N#Cc1cc2[nH]c(=O)c(=O)[nH]c2cc1[N+](=O)[O-] [CNQX]
- Generation of the signal in presence of specific inhibitor ([3]; CNQX 50 μM, preincubated 3 minutes, then glutamate activation (FIG. 11)): could be blocked

Molecule: N[C@@H](CCC(=O)O)C(=O)O [glutamate]
- Green punctae (translocation of GFP-CaMKII to MLS-NR2B) upon receptor activation ([3]; HEK-293 cells transfected with GluR4, GFP-CaMKII and MLS-NR2B, 10 μM glutamate with 2 mM Ca2+, about 5 minutes): caused the formation of green punctae
- Ca2+ influx / translocation of GFP-α-CaMKII to NR2B upon receptor activation [1]: caused influx of Ca^2+

Molecule: T286D-CaMKII: T286D mutant form of the GFP fusion of α-CaMKII used as Ca2+ sensor
- Cell count (percentage of green cells with binding signal) relative to wild-type GFP-α-CaMKII ([4]; ionomycin-mediated Ca2+ influx (FIG. 5)): increased (more than two fold) cell count
- Lowest extracellular [Ca2+] giving response ([4]; ionomycin-mediated Ca2+ influx, different extracellular [Ca2+] (FIG. 6)): 2 nM

Molecule: NCC(=O)O [glycine]
- Ca2+ influx / translocation of GFP-α-CaMKII to NR2B upon receptor activation [1]: caused influx of Ca^2+

Molecule: COc1cc(CNC(=O)CCCC/C=C/C(C)C)ccc1O [capsaicin]
- Green punctae as signal for Ca2+-channel activity of TRPV1 upon activation ([2]; HEK-293 cells cotransfected with TRPV1, GFP-CaMKII and MLS-NR2B, capsaicin 3 μM or 10 nM with 2 mM Ca2+, 5 minutes): developed green punctae
